What was measured:
[1] = system: sAPPα levels in A172-E4 cells; experiment: Confirmation assay in A172-E4 cells, sAPPα AlphaLISA; format: cell-based, human; conditions: 50 μM A03 vs DMSO, cell culture medium
Experimental: (§1) Jesus Campagna, Patricia Spilman, Barbara Jagodzinska, Dongsheng Bai, Asa Hatami, Chunni Zhu, Tina Bilousova, Michael Jun, Chris Jean Elias, Johnny Pham, Gregory Cole, Mary Jo LaDu, Michael E. Jung, Dale E. Bredesen, and […]
Confirmation assay in A172-E4 cells. Befo re transfection, A172 human glioblastoma cells were cultured in Dulbecco’s Modified Eagle Medium (DMEM) supplemented with 10% fetal bovine serum and 1% penicillin/streptomycin in a 37 °C incubator in an atmosphere of 5% CO2 in air. The day of transfection, the media was replaced with Opti-MEM reduced serum medium. Transient transfection with human ApoE4 and ApoE3 constructs in pcDNA3 mammalian expression vectors or empty vector (control) was performed in 96-well plates using a 1:1 mixture of two transfection reagents - Lipofectamine 2000 and siPORT amine - in Opti-MEM as previously described13. After 4 hr incubation with transfection reagents, medium was exchanged for fresh […]
Cells were incubated with the compound for 60 hrs, then cell culture medium (for sAPPα) and cells (lysates for SirT1) were harvested and levels of sAPPα and SirT1

[2] = Pharmacokinetics after oral delivery in mice; format: in vivo; conditions: oral 10 mg/kg
Experimental: All in vivo experiments described were carried out in strict accordance with good animal practice according to NIH recommendations. All procedures for animal use were approved by the Animal Research Committee (ARC) at UCLA and under an approved ARC protocol. Pharmacokinetic (PK) analysis[68]–[70] consisted of oral delivery of compounds (10 mg/Kg) to individual mice followed by euthanasia at 1, 2, 4, 6, and 8 hours post-dose by ketamine/xylazine over-anesthesia, blood collection by cardiac puncture, and transcardial saline perfusion. Whole blood was centrifuged at 5000 rpm for 10 min. in a 5 °C centrifuge to isolate plasma and the plasma stored at −20 °C before analysis. Whole brains were collected, dissected down the midline, snap frozen on dry ice, and stored at −80 °C before analysis. The levels of the compounds in both plasma and brain tissue were determined by a quantitative LC/MS/MS methodology at Integrated Analytical Solutions (IAS, Berkeley, CA). Plasma samples were precipitated with an acetonitrile: methanol (1:1) cocktail containing an internal standard. Brain samples were homogenized directly in ethyl acetate by the liquid-liquid method. The resulting supernatant was evaporated to dryness and subjected to LC/MS/MS analysis. The Tmax, Cmax, brain-to-plasma ratios and brain levels were then calculated using PK Solutions software (SummitPK).

[3] = system: E4FAD mice; experiment: Y maze Forced Alternation in 56-day study; format: in vivo; conditions: minute 1 or by 5 minutes
Experimental: Study mice also underwent Forced Alternation (FA) tests in a Y maze apparatus[74],[75]. Details of the method can be found in Supplementary Methods. Briefly, individual test mice are prevented from entering one of three arms of the maze in the first 5 minute trial and after 30 minutes is returned to maze wherein the blocked arm is available. Time in Novel Arm C [%] was defined as the time spent in the novel arm divided by the time spent in all arms during the first minute.
A small molecule ApoE4-targeted therapeutic candidate that normalizes sirtuin 1 levels and Improves cognition in an Alzheimer’s disease mouse model
as §1
Confirmation assay in A172-E4 cells. […]
Cells were incubated with the compound for 60 hrs, then cell culture medium (for sAPPα) and cells (lysates for SirT1) were harvested and levels of sAPPα and SirT1 determined by AlphaLISA. […]
PAMPA. […] The parameters determined are Tr = retention time of compound; KIAM= (Tr-T0)/T0; T0= is the delay time of the column, determined by use of 100 µg/mL citric acid) and was T0= 1.24 min; and (KIAM/MW4)*10-(10). […]
Forced Alternation. […] An arm entry was recorded when all 4 paws of the mouse entered the arm. […]

[4] = Brain compound levels 2 hours after the last dose in efficacy studies; format: in vivo, mice
Experimental: Mice were euthanized and blood/tissues collected 2 hrs after dosing on day 28 by the method described above for PK. Frontal and parietal cortices (FrCx and PtCx, respectively), as well as the remaining brain tissue, from individual mice were dissected, snap frozen on dry ice, and stored at −80 °C. Plasma samples and the brain tissue minus the FrCx and PtCx (the ‘rest’) from all compound-treated mice were sent to IAS for compound level analysis as described above.
Mice were euthanized and blood/tissues collected 2 hrs after dosing on Day 25 by the method described above for PK. FrCx, PtCx, and hippocampi (Hip) were collected from all mice for SirT1 and sAPPα level determination by AlphaLISA. Protein concentration was determined using a Bradford protein assay. Brain and plasma levels of A03 were determined at IAS.
Mice were euthanized and blood/tissues collected 2 hrs after dosing on Day 56 by the method described above for PK. Hip and FrCx were collected for analysis of SirT1, sAPPα, and Aβ1-42 levels by AlphaLISA. For Aβ1-42 the Perkin Elmer kit AL276C was used. Protein concentrations were determined using the Bradford protein assay. The sAPPα and sAPPβ AlphaLISAs were similar to the SirT1 AlphaLISA (see Supplementary Fig. S3) but the former uses anti-sAPPα antibody AF1168 and 2B3-biotinylated antibodies and the latter an anti-sAPPβ antibody (IBL Cat. #18957) and an anti-N-terminal APP antibody (R&D Systems AF1168) instead of anti-SirT1 antibodies. Brain tissue and plasma were sent to IAS for A03 level analysis.

CC(N)C(=O)OC(C)(C)Cc1ccc(Cl)cc1 (centres unmarked) [A03, alaproclate]
sAPPα levels in A172-E4 cells [1]: significant increase
Tmax ([2]; mouse, brain, n = 1 per time point): 1 h
AUC ([2]; mouse, plasma, 1-8 hours): 266 ng·h/mL
AUC brain ([2]; 1-8 hours): 1336 ng·h/g
Y maze FA, entries into the Novel Arm C [3]: no significant differences amongst groups
Brain level 2 hours after the last dose ([4]; 25-day study, oral 40 mg/kg/day, n = 12): above 2000 n/g
concentration at 2 h ([4]; E4FAD, mouse, brain, 56-day study, oral 40 mg/kg/day, n = 16, read-out: Brain level 2 hours after the last dose): ~700 ng/g
Brain levels 2 hours after the last dose, E1 vs A03 ([4]; pilot study, SQ 10 mg/kg/day, 28 days, n = 8): slightly higher

Reference: article PMC6279743, “A small molecule ApoE4-targeted therapeutic candidate that normalizes sirtuin 1 levels and improves cognition in an Alzheimer’s disease mouse model” (Scientific Reports, 2018)
